# According to patent US12616680B2 (CONSEJO SUPERIOR DE INVESTIGACIONES CIENTÍFICAS (CSIC), priority 2019, dated 2026):
# System: R6/1 mice
# Details: oral in drinking water from 3 weeks of age, open field at 13 weeks, rotarod at 18 weeks, biotin 10 mg/kg/day or thiamine 200 mg/kg/day, given separately, FIG. 6A-B
smiles,measurement,value
Cc1ncc(C[n+]2csc(CCO)c2C)c(N)n1 [thiamine],"effect on hypoactivity (open field, distance covered) and motor coordination deficit (rotarod, time to fall)",only showed improving trends in some of the behavioural tests
